Source: patent US12365850B2, “Water-miscible functional fluid, undiluted stock of water-miscible functional fluid, sterilizer for water-miscible functional fluid, and method of sterilizing water-miscible function fluid” (priority 2020, dated 2025)
Like-named read-outs stand apart in the source and are kept apart here. Values belong to the molecule of their own block, whether it stands above or below them.

Legend:
[1] = pH drop suppression test of water-miscible cutting fluid (circulation and blue LED irradiation); assay type: physicochemical
bacteria = assay: Photosterilization test of neutral photosensitizers (bacterial count after light irradiation); assay type: cell-based
[2] = 100%×(pH at preparation−pH after continuing use)/(pH at preparation), riboflavin cutting fluid with the named antioxidant
[3] = class by pH change rate, riboflavin cutting fluid with the named antioxidant
[4] = riboflavin cutting fluid containing the named antioxidant, one month, Table 3 (same values as Table 2)
[5] = wavelength 450 nm, irradiance 100 μW/cm2, light intensity 10 J/cm2, photosensitizer 50 ppm (Lumichrome 20 ppm)
[6] = wavelength 450 nm, irradiance 100 μW/cm2, light intensity 30 J/cm2, photosensitizer 50 ppm (Lumichrome 20 ppm)
[7] = wavelength 450 nm, irradiance 100 μW/cm2, light intensity 50 J/cm2, photosensitizer 50 ppm (Lumichrome 20 ppm)
[8] = wavelength 450 nm, irradiance 100 μW/cm2, light intensity 100 J/cm2, photosensitizer 50 ppm (Lumichrome 20 ppm)
[9] = wavelength 450 nm, irradiance 100 μW/cm2, light intensity 200 J/cm2, photosensitizer 50 ppm (Lumichrome 20 ppm)
[10] = wavelength 450 nm, irradiance 100 μW/cm2, light intensity 400 J/cm2, photosensitizer 50 ppm (Lumichrome 20 ppm)

pH change rate (%) [1, 2]: 4.7%
Evaluation of pH drop supression [1, 3]: A (pH change rate of 15% or lower)
pH change [1, 4]: 0.4
SMILES: CCC(C)Nc1ccc(NC(C)CC)cc1 (stereo not shown) [N,N′-Di-sec-butyl-1,4-phenylenediamine]

pH change rate (%) [1, 2]: 5.8%
Evaluation of pH drop supression [1, 3]: A (pH change rate of 15% or lower)
pH change [1, 4]: 0.5
SMILES: CC(C)(C)c1cc(CCC(=O)OCC(COC(=O)CCc2cc(C(C)(C)C)c(O)c(C(C)(C)C)c2)(COC(=O)CCc2cc(C(C)(C)C)c(O)c(C(C)(C)C)c2)COC(=O)CCc2cc(C(C)(C)C)c(O)c(C(C)(C)C)c2)cc(C(C)(C)C)c1O [Irganox 1010]

pH change rate (%) [1, 2]: 8.1%
Evaluation of pH drop supression [1, 3]: A (pH change rate of 15% or lower)
pH change [1, 4]: 0.7
SMILES: CC(O)CNCC(C)O (stereo not shown) [Di-isopropanolamine]

pH change rate (%) [1, 2]: 11.6%
Evaluation of pH drop supression [1, 3]: A (pH change rate of 15% or lower)
pH change [1, 4]: 1
SMILES: Cc1cc(C(C)(C)C)c(O)c(C(C)(C)C)c1 [BHT, butylated hydroxytoluene]

pH change rate (%) [1, 2]: 24.4%
pH change [1, 4]: 2.1
SMILES: O=C1O[C@H]([C@@H](O)CO)C([O-])=C1O.[Na+] [Sodium ascorbate]
Evaluation of pH drop supression [1, 3]: C (pH change rate higher than 20% and at most 30%)

pH change rate (%) [1, 2]: 7.0%
Evaluation of pH drop supression [1, 3]: A (pH change rate of 15% or lower)
pH change [1, 4]: 0.6
SMILES: Cc1c(C)c2c(c(C)c1O)CC[C@@](C)(CCC[C@H](C)CCC[C@H](C)CCCC(C)C)O2 [D-α-tocopherol]

pH change rate (%) [1, 2]: 9.3%
Evaluation of pH drop supression [1, 3]: A (pH change rate of 15% or lower)
pH change [1, 4]: 0.8
SMILES: CC(C)(C)c1cc(Cn2c(=O)n(Cc3cc(C(C)(C)C)c(O)c(C(C)(C)C)c3)c(=O)n(Cc3cc(C(C)(C)C)c(O)c(C(C)(C)C)c3)c2=O)cc(C(C)(C)C)c1O [Irganox 3114]

Continued, molecule first:

SMILES: CC(O)CN (stereo not shown) [Monoisopropanolamine]
pH change rate (%) [1, 2]: 19.8%
Evaluation of pH drop supression [1, 3]: B (pH change rate higher than 15% and at most 20%)
pH change [1, 4]: 1.7

SMILES: CCCC(=O)OCC(OC(=O)CCC)C(OC(=O)CCC)C(Cn1c2nc(=O)[nH]c(=O)c-2nc2cc(C)c(C)cc21)OC(=O)CCC (stereo not shown) [Example 7, Riboflavin butyrate]
Bacterial count (bacteria; [5]): ++ (bacterial count was 1.0×10^6 CFU/ml to 1.4×10^7 CFU/ml)
Bacterial count (bacteria; [6]): + (bacterial count was at least 1.0×10^2 CFU/ml and less than 1.0×10^6 CFU/ml)
Bacterial count (bacteria; [7]): + (bacterial count was at least 1.0×10^2 CFU/ml and less than 1.0×10^6 CFU/ml)
Bacterial count (bacteria; [8]): + (bacterial count was at least 1.0×10^2 CFU/ml and less than 1.0×10^6 CFU/ml)
Bacterial count (bacteria; [9]): − (bacterial count was at least 0 and less than 1.0×10^2 CFU/mil)
Bacterial count (bacteria; [10]): − (bacterial count was at least 0 and less than 1.0×10^2 CFU/mil)

SMILES: O=C([O-])CN(CCN(CC(=O)[O-])CC(=O)O)CC(=O)O.[Na+].[Na+] [Disodium edetate]
Evaluation of pH drop supression [1]: A (key: A: pH change rate of 15% or lower; B: pH change rate higher than 15% and at most 20%; C: pH change rate higher than 20% and at most 30%; D: pH change rate higher than 30%)
pH change [1]: 0.8
pH change rate (%) [1]: 9.3%

SMILES: OCCNCCO [Diethanolamine]
pH change rate (%) [1, 2]: 8.1%
Evaluation of pH drop supression [1, 3]: A (pH change rate of 15% or lower)
pH change [1, 4]: 0.7

SMILES: Cc1cc2nc3[nH]c(=O)[nH]c(=O)c3nc2cc1C [Example 2, Lumichrome]
Bacterial count (bacteria; [5]): ++ (bacterial count was 1.0×10^6 CFU/ml to 1.4×10^7 CFU/ml)
Bacterial count (bacteria; [6]): + (bacterial count was at least 1.0×10^2 CFU/ml and less than 1.0×10^6 CFU/ml)
Bacterial count (bacteria; [7]): − (bacterial count was at least 0 and less than 1.0×10^2 CFU/mil)
Bacterial count (bacteria; [8]): − (bacterial count was at least 0 and less than 1.0×10^2 CFU/mil)
Bacterial count (bacteria; [9]): − (bacterial count was at least 0 and less than 1.0×10^2 CFU/mil)
Bacterial count (bacteria; [10]): − (bacterial count was at least 0 and less than 1.0×10^2 CFU/mil)

SMILES: Sc1nc2ccccc2[nH]1 [2-mercaptobenzimidazole]
Evaluation of pH drop supression [1]: C (key: A: pH change rate of 15% or lower; B: pH change rate higher than 15% and at most 20%; C: pH change rate higher than 20% and at most 30%; D: pH change rate higher than 30%)
pH change [1]: 2.4
pH change rate (%) [1]: 27.9%

SMILES: NCC1CCCC(CN)C1 (stereo not shown) [1,3-Bis(aminomethyl)cyclohexane]
pH change rate (%) [1, 2]: 16.3%
Evaluation of pH drop supression [1, 3]: B (pH change rate higher than 15% and at most 20%)
pH change [1, 4]: 1.4

SMILES: CC(O)CN(CC(C)O)CC(C)O (stereo not shown) [Triisopropanolamine]
Evaluation of pH drop supression [1]: A (key: A: pH change rate of 15% or lower; B: pH change rate higher than 15% and at most 20%; C: pH change rate higher than 20% and at most 30%; D: pH change rate higher than 30%)
pH change [1]: 0.8
pH change rate (%) [1]: 9.3%

SMILES: Cc1cc2nc3c(=O)[nH]c(=O)nc-3n(C[C@H](O)[C@H](O)[C@H](O)CO)c2cc1C [Example 1, Riboflavin]
change in the bacterial count due to the light irradiation (bacteria; result in words): a decrease in the bacterial count was found
Bacterial count (bacteria; wavelength 275 nm, irradiance 100 μW/cm2, light intensity 10 J/cm2, photosensitizer 50 ppm): ++ (bacterial count was 1.0×10^6 CFU/ml to 1.4×10^7 CFU/ml)
Bacterial count (bacteria; wavelength 275 nm, irradiance 100 μW/cm2, light intensity 30 J/cm2, photosensitizer 50 ppm): ++ (bacterial count was 1.0×10^6 CFU/ml to 1.4×10^7 CFU/ml)
Bacterial count (bacteria; wavelength 275 nm, irradiance 100 μW/cm2, light intensity 50 J/cm2, photosensitizer 50 ppm): + (bacterial count was at least 1.0×10^2 CFU/ml and less than 1.0×10^6 CFU/ml)
Bacterial count (bacteria; wavelength 275 nm, irradiance 100 μW/cm2, light intensity 100 J/cm2, photosensitizer 50 ppm): + (bacterial count was at least 1.0×10^2 CFU/ml and less than 1.0×10^6 CFU/ml)
Bacterial count (bacteria; wavelength 275 nm, irradiance 100 μW/cm2, light intensity 200 J/cm2, photosensitizer 50 ppm): + (bacterial count was at least 1.0×10^2 CFU/ml and less than 1.0×10^6 CFU/ml)
Bacterial count (bacteria; wavelength 275 nm, irradiance 100 μW/cm2, light intensity 400 J/cm2, photosensitizer 50 ppm): − (bacterial count was at least 0 and less than 1.0×10^2 CFU/mil)
Bacterial count (bacteria; wavelength 380 nm, irradiance 1200 μW/cm2, light intensity 10 J/cm2, photosensitizer 50 ppm): ++ (bacterial count was 1.0×10^6 CFU/ml to 1.4×10^7 CFU/ml)
Bacterial count (bacteria; wavelength 380 nm, irradiance 1200 μW/cm2, light intensity 30 J/cm2, photosensitizer 50 ppm): ++ (bacterial count was 1.0×10^6 CFU/ml to 1.4×10^7 CFU/ml)
Bacterial count (bacteria; wavelength 380 nm, irradiance 1200 μW/cm2, light intensity 50 J/cm2, photosensitizer 50 ppm): ++ (bacterial count was 1.0×10^6 CFU/ml to 1.4×10^7 CFU/ml)
Bacterial count (bacteria; wavelength 380 nm, irradiance 1200 μW/cm2, light intensity 100 J/cm2, photosensitizer 50 ppm): + (bacterial count was at least 1.0×10^2 CFU/ml and less than 1.0×10^6 CFU/ml)
Bacterial count (bacteria; wavelength 380 nm, irradiance 1200 μW/cm2, light intensity 200 J/cm2, photosensitizer 50 ppm): + (bacterial count was at least 1.0×10^2 CFU/ml and less than 1.0×10^6 CFU/ml)
Bacterial count (bacteria; wavelength 380 nm, irradiance 1200 μW/cm2, light intensity 400 J/cm2, photosensitizer 50 ppm): + (bacterial count was at least 1.0×10^2 CFU/ml and less than 1.0×10^6 CFU/ml)
Bacterial count (bacteria; [5]): ++ (bacterial count was 1.0×10^6 CFU/ml to 1.4×10^7 CFU/ml)
Bacterial count (bacteria; [6]): + (bacterial count was at least 1.0×10^2 CFU/ml and less than 1.0×10^6 CFU/ml)
Bacterial count (bacteria; [7]): + (bacterial count was at least 1.0×10^2 CFU/ml and less than 1.0×10^6 CFU/ml)
Bacterial count (bacteria; [8]): + (bacterial count was at least 1.0×10^2 CFU/ml and less than 1.0×10^6 CFU/ml)
Bacterial count (bacteria; [9]): − (bacterial count was at least 0 and less than 1.0×10^2 CFU/mil)
Bacterial count (bacteria; [10]): − (bacterial count was at least 0 and less than 1.0×10^2 CFU/mil)
Bacterial count (bacteria; wavelength 500 nm, irradiance 100 μW/cm2, light intensity 10 J/cm2, photosensitizer 50 ppm): ++ (bacterial count was 1.0×10^6 CFU/ml to 1.4×10^7 CFU/ml)
Bacterial count (bacteria; wavelength 500 nm, irradiance 100 μW/cm2, light intensity 30 J/cm2, photosensitizer 50 ppm): ++ (bacterial count was 1.0×10^6 CFU/ml to 1.4×10^7 CFU/ml)
Bacterial count (bacteria; wavelength 500 nm, irradiance 100 μW/cm2, light intensity 50 J/cm2, photosensitizer 50 ppm): ++ (bacterial count was 1.0×10^6 CFU/ml to 1.4×10^7 CFU/ml)
Bacterial count (bacteria; wavelength 500 nm, irradiance 100 μW/cm2, light intensity 100 J/cm2, photosensitizer 50 ppm): ++ (bacterial count was 1.0×10^6 CFU/ml to 1.4×10^7 CFU/ml)
Bacterial count (bacteria; wavelength 500 nm, irradiance 100 μW/cm2, light intensity 200 J/cm2, photosensitizer 50 ppm): + (bacterial count was at least 1.0×10^2 CFU/ml and less than 1.0×10^6 CFU/ml)
Bacterial count (bacteria; wavelength 500 nm, irradiance 100 μW/cm2, light intensity 400 J/cm2, photosensitizer 50 ppm): + (bacterial count was at least 1.0×10^2 CFU/ml and less than 1.0×10^6 CFU/ml)

SMILES: NCCO [Monoethanol amine]
pH change rate (%) [1, 2]: 17.4%
Evaluation of pH drop supression [1, 3]: B (pH change rate higher than 15% and at most 20%)
pH change [1, 4]: 1.5

SMILES: Cc1cc2nc3c(=O)[nH]c(=O)nc-3n(CC(O)C(O)C(O)COP(=O)([O-])O)c2cc1C.[Na+] (stereo not shown) [Example 6, Riboflavin sodium phosphate]
Bacterial count (bacteria; [5]): ++ (bacterial count was 1.0×10^6 CFU/ml to 1.4×10^7 CFU/ml)
Bacterial count (bacteria; [6]): + (bacterial count was at least 1.0×10^2 CFU/ml and less than 1.0×10^6 CFU/ml)
Bacterial count (bacteria; [7]): + (bacterial count was at least 1.0×10^2 CFU/ml and less than 1.0×10^6 CFU/ml)
Bacterial count (bacteria; [8]): + (bacterial count was at least 1.0×10^2 CFU/ml and less than 1.0×10^6 CFU/ml)
Bacterial count (bacteria; [9]): − (bacterial count was at least 0 and less than 1.0×10^2 CFU/mil)
Bacterial count (bacteria; [10]): − (bacterial count was at least 0 and less than 1.0×10^2 CFU/mil)

SMILES: CC(C)(C)c1ccc(OP(Oc2ccc(C(C)(C)C)cc2C(C)(C)C)Oc2ccc(C(C)(C)C)cc2C(C)(C)C)c(C(C)(C)C)c1 [Tris(2,4-di-tert-butylphenyl) phosphite]
Evaluation of pH drop supression [1]: A (key: A: pH change rate of 15% or lower; B: pH change rate higher than 15% and at most 20%; C: pH change rate higher than 20% and at most 30%; D: pH change rate higher than 30%)
pH change [1]: 0.4
pH change rate (%) [1]: 4.7%
